This is an account of results in PubChem BioAssay AID206 (DTP/NCI, 2004).

In the assay the test system is nude mice, HT29 intrarenal xenograft, tumor weight T/C. As to the kind of experiment: NCI In Vivo Anticancer Drug Screen. Data for tumor model HT29;CX-1 Human Adenocarcinoma (MER+) (intrarenal inoculation) in NU/NU Swiss (nude) mice. The note with it: endpoint: mean tumor weight change, higher = larger tumour. An outline of the steps: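 Readout: treated/vehicle-control ratio of the measured endpoint (tumor size or survival) in transplanted-tumor mice.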

Setting [1] is: dose: 1200.0 mg/kg/injection, schedule: Q04DX004 (sc), vehicle: saline with Tween-80.
Where [2] appears, read: dose: 400.0 mg/kg/injection, schedule: Q04DX004 (sc), vehicle: saline with Tween-80.
The mark [3] stands for this setting: dose: 300.0 mg/kg/injection, schedule: Q04DX004 (sc), vehicle: saline.
Where [4] appears, read: dose: 600.0 mg/kg/injection, schedule: Q04DX004 (sc), vehicle: saline.
Setting [5] is: dose: 1200.0 mg/kg/injection, schedule: Q04DX004 (sc), vehicle: saline.
Setting [6] is: dose: 150.0 mg/kg/injection, schedule: Q04DX004 (sc), vehicle: saline.

Values joined by “and” are separate entries in the source; they are usually repeats but may differ in a detail not shown here. Equal entries are not always repeated. Records with an inconclusive call do not appear.

For the compound `C[CH2][Ge]1([CH2]C)[CH2]CC2(CCN(CCCN(C)C)C2)C[CH2]1`, for the setting “dose: 50.0 mg/kg/injection, schedule: Q01DX010 (sc), vehicle: saline”, the T/C is 99 % of control.
As for `C=C/C(C)=C/[C@H](C)C(=O)C[C@H](O)CC1CC(=O)NC(=O)C1`, the T/C (dose: 150.0 mg/kg/injection, schedule: Q04DX004 (sc), vehicle: saline with Tween-80) is 91 % of control; the T/C (dose: 300.0 mg/kg/injection, schedule: Q04DX004 (sc), vehicle: saline with Tween-80) is 100 % of control; the T/C (dose: 600.0 mg/kg/injection, schedule: Q04DX004 (sc), vehicle: saline with Tween-80) was 67 % of control; the T/C under setting [1] is 63 % of control.
For `Cc1nc(N)nc(N)c1-c1ccc(Cl)c(Cl)c1`, the T/C is 46 % of control (dose: 0.32 mg/kg/injection, schedule: Q01DX010 (sc), vehicle: saline); 75 % of control (dose: 0.63 mg/kg/injection, schedule: Q01DX010 (sc), vehicle: saline); 100 % of control (dose: 1.25 mg/kg/injection, schedule: Q01DX010 (sc), vehicle: saline); 68 % of control (dose: 2.5 mg/kg/injection, schedule: Q01DX010 (sc), vehicle: saline).
`C[Si](C)(C)O/C=C1\CCCCC1=O`: the T/C by setting is: (dose: 50.0 mg/kg/injection, schedule: Q04DX004 (sc), vehicle: saline with Tween-80) 163 % of control; (dose: 100.0 mg/kg/injection, schedule: Q04DX004 (sc), vehicle: saline with Tween-80) 92 % of control; (dose: 200.0 mg/kg/injection, schedule: Q04DX004 (sc), vehicle: saline with Tween-80) 123 % of control; under setting [2], 65 % of control.
As for `OCCOCC(F)(F)F`, the T/C under setting [3] was 67 % of control; the T/C under setting [4] was 91 % of control; the T/C under setting [5] was 100 % of control; the T/C (dose: 2400.0 mg/kg/injection, schedule: Q04DX004 (sc), vehicle: saline) was 58 % of control.
Consider `CC(C)NCC(O)COc1ccc(O)c(O)c1` (stereo not drawn), for which the T/C by setting is: (dose: 3.0 mg/kg/injection, schedule: Q04DX004 (sc), vehicle: saline) 107 % of control; (dose: 6.0 mg/kg/injection, schedule: Q04DX004 (sc), vehicle: saline) 103 % of control; (dose: 12.0 mg/kg/injection, schedule: Q04DX004 (sc), vehicle: saline) 164 % of control.
For the compound `COC1C(OC(=O)/C=C/C=C/C=C/C=C/C(=O)O)CCC2(CO2)C1C1(C)OC1CC=C(C)C` (stereo not drawn), the T/C was 104 % of control (dose: 75.0 mg/kg/injection, schedule: Q04DX004 (sc), vehicle: saline); 96 % of control under setting [6]; 119 % of control under setting [3].
Regarding `Cc1ccccc1CN1C2=NCCN2C(=O)C2=C1CCN(S(=O)(=O)c1ccc(Cl)c(S(N)(=O)=O)c1)C2`, the T/C is, setting by setting: under setting [6], 86 % of control; under setting [3], 168 % of control; under setting [4], 115 % of control; under setting [5], 75 % of control.
Take `CCC1=C[C@H]2CN(CCc3c([nH]c4ccccc34)[C@@](C(=O)OC)(c3cc4c(cc3OC)N(C)[C@H]3[C@@](O)(C(=O)NC)[C@H](OC(C)=O)[C@]5(CC)C=CCN6CC[C@]43[C@@H]65)C2)C1`: the T/C is 106 % of control (dose: 1.0 mg/kg/injection, schedule: Q04DX004 (sc), vehicle: water); 28 % of control (dose: 2.0 mg/kg/injection, schedule: Q04DX004 (sc), vehicle: water); -20 % of control (dose: 4.0 mg/kg/injection, schedule: Q04DX004 (sc), vehicle: water).
With `CCN(C)N=Nc1ccc(C(N)=O)cc1`, the T/C was 92 % of control (dose: 75.0 mg/kg/injection, schedule: Q04DX004 (sc), vehicle: Klucel (hydroxypropylcellulose) (HPC)) and 68 % of control (dose: 150.0 mg/kg/injection, schedule: Q04DX004 (sc), vehicle: Klucel (hydroxypropylcellulose) (HPC)).
`CC(=O)C(=O)O.CC(=O)C(=O)O.[NH-]C1CCCCC1[NH-].[Pt+2]` (stereo not drawn): the T/C is 64 % of control (dose: 15.0 mg/kg/injection, schedule: Q04DX004 (sc), vehicle: other); 64 % of control (dose: 30.0 mg/kg/injection, schedule: Q04DX004 (sc), vehicle: other); 47 % of control (dose: 60.0 mg/kg/injection, schedule: Q04DX004 (sc), vehicle: other).
Consider `Nc1ncn(C2OC(CO)C(O)C2O)c(=O)n1` (stereo not drawn), for which the T/C reads like this: (dose: 0.19 mg/kg/injection, schedule: Q01DX010 (sc), vehicle: saline) 212 % of control; (dose: 0.38 mg/kg/injection, schedule: Q01DX010 (sc), vehicle: saline) 172 % of control; (dose: 0.75 mg/kg/injection, schedule: Q01DX010 (sc), vehicle: saline) 96 % of control; (dose: 5.0 mg/kg/injection, schedule: Q04DX004 (sc), vehicle: saline) 66 % of control; (dose: 10.0 mg/kg/injection, schedule: Q04DX004 (sc), vehicle: saline) 48 % of control and 49 % of control; (dose: 100.0 mg/kg/injection, schedule: Q04DX004 (sc), vehicle: saline) 62 % of control. Moreover, the T/C by setting is: (dose: 200.0 mg/kg/injection, schedule: Q04DX004 (sc), vehicle: saline) 85 % of control; (dose: 200.0 mg/kg/injection, schedule: Q04DX004 (sc), vehicle: suspension in saline) 98 % of control; (dose: 300.0 mg/kg/injection, schedule: Q04DX004 (sc), vehicle: suspension in saline) 24 % of control; (dose: 400.0 mg/kg/injection, schedule: Q04DX004 (sc), vehicle: saline) 38 % of control; (dose: 600.0 mg/kg/injection, schedule: Q04DX004 (sc), vehicle: suspension in saline) 79 % of control; (dose: 800.0 mg/kg/injection, schedule: Q04DX004 (sc), vehicle: saline) 7 % of control. The T/C is 29 % of control and 30 % of control (dose: 800.0 mg/kg/injection, schedule: Q04DX004 (sc), vehicle: suspension in saline); 7 % of control (dose: 1200.0 mg/kg/injection, schedule: Q04DX004 (sc), vehicle: suspension in saline); 11 % of control (dose: 1600.0 mg/kg/injection, schedule: Q04DX004 (sc), vehicle: suspension in saline).
As for `Cc1ccccc1N(CC1CO1)CC1CO1` (stereo not drawn), the T/C is 157 % of control (dose: 50.0 mg/kg/injection, schedule: Q01DX010 (sc), vehicle: suspension in saline); 38 % of control (dose: 100.0 mg/kg/injection, schedule: Q01DX010 (sc), vehicle: suspension in saline); 15 % of control (dose: 200.0 mg/kg/injection, schedule: Q01DX010 (sc), vehicle: suspension in saline); 67 % of control (dose: 800.0 mg/kg/injection, schedule: Q01DX010 (sc), vehicle: suspension in saline).
In the case of `CCOC(=O)C(CC(C)C)NC(=O)C(Cc1ccc(N(CCCl)CCCl)cc1)NC(C)=O` (stereo not drawn), the T/C is 66 % of control and 87 % of control (dose: 12.5 mg/kg/injection, schedule: Q01DX010 (sc), vehicle: saline with Tween-80); 62 % of control under setting [2]; 32 % of control (dose: 800.0 mg/kg/injection, schedule: Q04DX004 (sc), vehicle: saline with Tween-80); 29 % of control under setting [1].
On to `CCCCCCCCCCCCCCC/C([O-])=N/[N+](C)(C)CC(C)O` (stereo not drawn), for which the T/C was 106 % of control (dose: 50.0 mg/kg/injection, schedule: Q04DX004 (sc), vehicle: Klucel (hydroxypropylcellulose) (HPC)); 103 % of control (dose: 100.0 mg/kg/injection, schedule: Q04DX004 (sc), vehicle: Klucel (hydroxypropylcellulose) (HPC)); 86 % of control (dose: 200.0 mg/kg/injection, schedule: Q04DX004 (sc), vehicle: Klucel (hydroxypropylcellulose) (HPC)); 110 % of control (dose: 400.0 mg/kg/injection, schedule: Q04DX004 (sc), vehicle: Klucel (hydroxypropylcellulose) (HPC)).
Consider `Cc1c2ccccc2cc2cccc[n+]12`, for which the T/C reads like this: (dose: 7.5 mg/kg/injection, schedule: Q04DX004 (sc), vehicle: saline) 116 % of control; (dose: 15.0 mg/kg/injection, schedule: Q04DX004 (sc), vehicle: saline) 63 % of control; (dose: 30.0 mg/kg/injection, schedule: Q04DX004 (sc), vehicle: saline) 93 % of control.
Take `OCCCN1CCCCC1CO` (stereo not drawn): the T/C was 106 % of control (dose: 225.0 mg/kg/injection, schedule: Q04DX004 (sc), vehicle: saline); 89 % of control (dose: 450.0 mg/kg/injection, schedule: Q04DX004 (sc), vehicle: saline); 92 % of control (dose: 900.0 mg/kg/injection, schedule: Q04DX004 (sc), vehicle: saline).
